In ChEMBL document CHEMBL4428076 (J Med Chem, 2016):
Activity calls are given as the source filed them. No cut-off for these calls is given here.

How the values were obtained:
Mus musculus [1] = test: Antinociceptive activity in CD-1 mouse assessed as increase in reaction time at 1.5 mg/kg, sc administered on day 6 after DOR1-exon3 antisense oligodeoxynucleotide injection on day 1, 3 and 5 by radiant heat tail flick assay; assay type: functional, organism-based
Mus musculus [2] = test: Potency index, ratio of morphine ED50 to compound ED50 in sc dosed CD-1 mouse; assay type: functional
Mus musculus [3] = test: Antinociceptive activity in sc dosed CD-1 mouse assessed as increase in reaction time administered twice daily at dosing intervals of 12 hrs for 5 days by radiant heat tail flick assay; assay type: functional; conditions: CD-1, sc
Mus musculus [4] = test: Antinociceptive activity in CD-1 mouse assessed as increase in reaction time at 1.5 mg/kg, sc administered on day 6 after MOR1-exon1 antisense oligodeoxynucleotide injection on day 1, 3 and 5 by radiant heat tail flick assay; assay type: functional, organism-based
[5] = Toxicity in CD-1 mouse assessed as physical dependence by measuring number of jumps at 1.5 mg/kg, sc bid for 5 days followed by opioid antagonist naloxone injection on day 5 measured for 15 mins post last dose; assay type: organism-based; conditions: in vivo, 0.25 h
Mus musculus [6] = test: Antinociceptive activity in sc dosed C57BL/6 mouse assessed as increase in reaction time by radiant heat tail flick assay; assay type: functional; conditions: C57BL/6, sc
Mu-type opioid receptor [7] = target: Mu-type opioid receptor (Mus musculus, UniProt P42866); test: Agonist activity at mouse mu opioid receptor-1 expressed in CHO cell membranes assessed as [35S]GTPgammaS binding incubated for 60 mins by scintillation spectroscopic analysis; assay type: functional
Mus musculus [8] = test: Antinociceptive activity in MOR-1 6TM/E11 splice variant knock out sc dosed C57BL/6 mouse assessed as increase in reaction time by radiant heat tail flick assay; assay type: functional; conditions: C57BL/6, sc
Mus musculus [9] = test: Antinociceptive activity in sc dosed CD-1 mouse assessed as increase in reaction time measured 15 mins post dose by radiant heat tail flick assay; assay type: functional; conditions: CD-1, sc, 0.25 h
Mus musculus [10] = test: Antinociceptive activity in CD-1 mouse assessed as increase in reaction time at 1.5 mg/kg, sc administered on day 6 after KOR1-exon2 antisense oligodeoxynucleotide injection on day 1, 3 and 5 by radiant heat tail flick assay; assay type: functional, organism-based
Mus musculus [11] = test: Ratio of ED50 for sc dosed CD-1 mouse administered twice daily at dosing intervals of 12 hrs for 5 days to ED50 for sc dosed CD-1 mouse measured 15 mins post dose; assay type: functional
[12] = Toxicity in C57BL/6 mouse assessed as decrease in respiratory rate at 1.2 mg/kg, sc measured at 15 to 35 mins post dose; assay type: organism-based; conditions: in vivo
Mus musculus [13] = test: Ratio of ED50 for sc dosed CD-1 mouse administered twice daily at dosing intervals of 12 hrs for 29 days to ED50 for sc dosed CD-1 mouse measured 15 mins post dose; assay type: functional
[14] = Toxicity in C57BL/6 mouse assessed as conditioned place aversion at 1.3 to 3.2 mg/kg/day, ip measured for 30 mins post dose; assay type: organism-based; conditions: in vivo, 0.5 h
Mu-type opioid receptor [15] = target: Mu-type opioid receptor (Homo sapiens, UniProt P35372); test: Activation of mu opioid receptor-1 (unknown origin) expressed in CHO cells assessed as beta-arrestin-2 recruitment at 10 uM after 90 mins by beta-galactosidase complementation assay; assay type: cell-based; conditions: 1.5 h
[16] = Toxicity in C57BL/6 mouse assessed as conditioned place preference at 1.3 to 3.2 mg/kg/day, ip measured for 30 mins post dose; assay type: organism-based; conditions: in vivo, 0.5 h
Mus musculus [17] = test: Antinociceptive activity in CD-1 mouse assessed as increase in reaction time at 1.5 mg/kg, sc measured 15 mins post dose in presence of mu opioid receptor antagonist beta-FNA by radiant heat tail flick assay; assay type: functional, organism-based
Mus musculus [18] = test: Antinociceptive activity in sc dosed CD-1 mouse assessed as increase in AUC of reaction time administered twice daily at dosing intervals of 12 hrs for 29 days by radiant heat tail flick assay relative to morphine; assay type: functional
Mus musculus [19] = test: Antinociceptive activity in CD-1 mouse assessed as increase in reaction time at 1.5 mg/kg, sc measured 15 mins post dose in presence of kappa opioid receptor antagonist norBNI by radiant heat tail flick assay; assay type: functional, organism-based
[20] = Toxicity in C57BL/6 mouse assessed as decrease in respiratory rate at 3 mg/kg, sc measured at 15 to 35 mins post dose relative to control; assay type: organism-based; set-up: scale not given: the % may be the effect or the level left; conditions: in vivo
Mus musculus [21] = test: Antinociceptive activity in po dosed CD-1 mouse assessed as increase in reaction time administered through gavage measured 15 mins post dose by radiant heat tail flick assay; assay type: functional; conditions: CD-1, po, 0.25 h
Mus musculus [22] = test: Antinociceptive activity in sc dosed CD-1 mouse assessed as increase in reaction time administered four times per day for 5 days by radiant heat tail flick assay; assay type: functional; conditions: CD-1, sc, 120 h
Mus musculus [23] = test: Antinociceptive activity in sc dosed CD-1 mouse assessed as increase in latency latency to respond with hind paw lick or shake/flutter measured 15 mins post dose by hot plate test; assay type: functional; conditions: CD-1, sc, 0.25 h
[24] = target: Delta-type opioid receptor (Mus musculus, UniProt P32300); test: Antagonist activity at mouse delta opioid receptor-1 expressed in CHO cell membranes assessed as inhibition of DPDPE-induced [35S]GTPgammaS binding incubated for 60 mins by scintillation spectroscopic analysis; assay type: functional
[25] = target: T1, Alpha-2A adrenergic receptor (Homo sapiens) (UniProt P08913); test: Displacement of [3H]rauwolscine from recombinant human adrenergic alpha2A receptor expressed in MDCK cell membrane after 90 mins by microbeta scintillation counting method
T1 sequence (whole entry): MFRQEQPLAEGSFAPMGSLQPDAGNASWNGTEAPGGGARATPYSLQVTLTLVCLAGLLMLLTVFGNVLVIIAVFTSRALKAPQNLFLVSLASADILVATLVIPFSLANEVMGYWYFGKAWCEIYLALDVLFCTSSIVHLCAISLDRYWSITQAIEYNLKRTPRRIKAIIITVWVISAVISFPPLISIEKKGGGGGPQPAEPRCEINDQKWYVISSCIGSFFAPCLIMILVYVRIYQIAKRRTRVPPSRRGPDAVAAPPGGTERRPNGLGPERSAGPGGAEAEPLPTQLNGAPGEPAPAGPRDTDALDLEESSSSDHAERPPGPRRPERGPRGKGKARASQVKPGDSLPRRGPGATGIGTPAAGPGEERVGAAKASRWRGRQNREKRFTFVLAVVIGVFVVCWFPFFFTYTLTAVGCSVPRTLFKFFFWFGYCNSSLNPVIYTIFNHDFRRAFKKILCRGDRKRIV

Mus musculus [26] = test: Potency index, ratio of morphine ED50 to compound ED50 in icv dosed CD-1 mouse; assay type: functional
Mus musculus [27] = test: Antinociceptive activity in icv dosed CD-1 mouse assessed as increase in reaction time measured 15 mins post dose by radiant heat tail flick assay; assay type: functional
Mus musculus [28] = test: Antinociceptive activity in CD-1 mouse assessed as time required for peak effect at 1.5 mg/kg, sc by radiant heat tail flick assay; assay type: functional
[29] = Toxicity in CD-1 mouse assessed as physical dependence by measuring number of jumps at 1.5 mg/kg, sc bid for 22 days followed by opioid antagonist naloxone injection on day 22 measured for 15 mins post last dose; assay type: organism-based; conditions: in vivo, 0.25 h
[30] = Toxicity in CD-1 mouse assessed as inhibition of gastrointestinal transit by measuring distance traveled by charcoal at 4 mg/kg, sc followed by charcoal meal administration measured after 30 mins; assay type: organism-based; conditions: in vivo, 0.5 h

Sequence of Mu-type opioid receptor (Mus musculus, UniProt P42866) (P42866 whole entry, canonical isoform): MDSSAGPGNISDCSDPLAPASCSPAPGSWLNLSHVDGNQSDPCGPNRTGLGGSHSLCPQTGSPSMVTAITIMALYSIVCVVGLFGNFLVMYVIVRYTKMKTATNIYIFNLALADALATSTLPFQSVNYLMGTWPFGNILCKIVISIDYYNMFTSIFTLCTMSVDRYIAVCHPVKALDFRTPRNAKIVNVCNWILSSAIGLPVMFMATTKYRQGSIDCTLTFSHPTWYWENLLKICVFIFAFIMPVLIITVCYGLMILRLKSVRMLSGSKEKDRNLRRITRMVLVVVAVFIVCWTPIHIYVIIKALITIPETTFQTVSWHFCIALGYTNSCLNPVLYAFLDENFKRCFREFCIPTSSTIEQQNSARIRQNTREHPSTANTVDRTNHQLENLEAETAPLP
Sequence of Delta-type opioid receptor (P32300 whole entry): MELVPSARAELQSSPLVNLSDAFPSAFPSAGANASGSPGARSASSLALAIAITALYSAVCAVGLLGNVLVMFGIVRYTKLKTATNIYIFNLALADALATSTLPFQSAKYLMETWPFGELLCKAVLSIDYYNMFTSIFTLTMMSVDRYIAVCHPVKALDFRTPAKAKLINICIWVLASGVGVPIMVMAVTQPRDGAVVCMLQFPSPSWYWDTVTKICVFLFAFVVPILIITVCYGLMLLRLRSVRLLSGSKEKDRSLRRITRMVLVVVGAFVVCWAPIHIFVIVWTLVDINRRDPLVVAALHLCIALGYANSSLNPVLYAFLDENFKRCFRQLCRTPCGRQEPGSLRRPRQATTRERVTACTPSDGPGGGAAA
Sequence of Mu-type opioid receptor (Homo sapiens, UniProt P35372) (P35372 whole entry): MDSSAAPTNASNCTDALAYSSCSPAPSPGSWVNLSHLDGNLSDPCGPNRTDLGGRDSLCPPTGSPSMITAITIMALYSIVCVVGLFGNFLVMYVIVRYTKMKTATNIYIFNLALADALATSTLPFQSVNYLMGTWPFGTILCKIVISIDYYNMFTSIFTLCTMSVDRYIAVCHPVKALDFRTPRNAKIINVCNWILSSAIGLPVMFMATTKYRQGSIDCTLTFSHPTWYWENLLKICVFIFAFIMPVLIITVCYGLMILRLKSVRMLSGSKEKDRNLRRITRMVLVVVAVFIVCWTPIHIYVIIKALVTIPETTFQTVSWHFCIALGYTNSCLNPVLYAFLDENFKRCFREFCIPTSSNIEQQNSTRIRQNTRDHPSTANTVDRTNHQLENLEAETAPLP

With `CC[C@@H]1CN2CC[C@]3(Nc4cccc(OC)c4C3=O)[C@@H]2C[C@@H]1/C(=C\OC)C(=O)OC` the Activity (Mus musculus [1]) was “Active”, the “Ratio ED50” value (Mus musculus [2]) was 3 and the ED50 (Mus musculus [3]) was 1.1 mg/kg. For the same molecule, the Activity (Mus musculus [4]) was “inactive”, the Activity [5] was 12 and the ED50 (Mus musculus [6]) was 0.83 mg/kg. It also gave an EC50 (Mu-type opioid receptor [7]) of 1.7 nM, an ED50 (Mus musculus [8]) of 1.4 mg/kg and an ED50 (Mus musculus [9]) of 0.76 mg/kg. The Activity (Mus musculus [10]) was “Active”, the “Ratio ED50” value (Mus musculus [11]) was <2 and the Activity [12] was “Non-Toxic”. For the same molecule, the “Ratio ED50” value (Mus musculus [13]) was 6, the Activity [14] was “Non-Toxic” and the Activity (Mu-type opioid receptor [15]) was “Not Active”. The Activity [16] was “Non-Toxic”, the Activity (Mus musculus [17]) was “inactive” and the “fold change (FC)” value (Mus musculus [18]) was 6. For the same molecule, the Activity (Mus musculus [19]) was “Active”, the Activity [20] was 15% and the ED50 (Mus musculus [21]) was 7.5 mg/kg. It also gave an ED50 (Mus musculus [22]) of 1.6 mg/kg, an ED50 (Mus musculus [23]) of 0.99 mg/kg and an IC50 [24] of 61 nM. For the same molecule, the inhibition [25] was “Active”, the “Ratio ED50” value (Mus musculus [26]) was 1.5 and the ED50 (Mus musculus [27]) was 0.38 µg. The Time (Mus musculus [28]) was 15 min, the Activity [29] was 13 and the Activity [30] was “Non-Toxic”.
